In BindingDB's records for doi:10.1021/jm0704200:

Key:
[1] = Antagonist activity at human dopamine D3 receptor expressed in HEK293 cells by mitogenesis assay
[2] = Agonist activity at human dopamine D2 receptor expressed in HEK293 cells by mitogenesis assay
[3] = Antagonist activity at human dopamine D2 receptor expressed in HEK293 cells by mitogenesis assay

Row | SMILES | IC50 [1] [nM] | EC50 [2] [nM] | IC50 [3] [nM]
1 | COc1ccccc1N1CCN(CCCCNC(=O)c2ccc3c(c2)Cc2ccccc2-3)CC1 [N-(4-(4-(2-methoxyphenyl)piperazin-1-yl)butyl)-9H-fluorene-2-carboxamide] | 2.2 |  | 
2 | COc1ccccc1N1CCN(CCCCNC(=O)c2ccc(-c3ccccn3)cc2)CC1 [N-(4-(4-(2-methoxyphenyl)piperazin-1-yl)butyl)-4-pyridin-2-ylbenzamide] | 2.9 |  | 
3 | O=C(NC[C@H]1C[C@@H]1CN1CCN(c2cccc(Cl)c2Cl)CC1)c1ccc(-c2ccccn2)cc1 [N-(2-(4-(2,3-dichlorophenyl)piperazin-1-ylmethyl)-trans-cyclopropylmethyl)-4-pyridin-2-ylbenzamide] | 14.3 | 150 | 672
4 | O=C(NCCCCN1CCN(c2cccc(Cl)c2Cl)CC1)c1ccc(-c2ccccn2)cc1 [N-{4-[4-(2,3-Dichloro-phenyl)-piperazin-1-yl]-butyl}-4-pyridin-2-yl-benzamide] |  | 92 | 
